Reference: patent US6884814B2, “Phenyl benzisoxazoles as estrogenic agents” (Wyeth, priority 2001, dated 2005)
pIC50: −log10 of the molar value.

How the values were obtained:
human ERα = target: T1, human ERα (Homo sapiens, UniProt P03372); test: Radioligand binding competition with [3H]-17β-estradiol, ERα; settings: human ERα ligand binding domain, E. coli lysate, read-out: ER-α IC50
T1 construct: amino acids M250-V595 of human ERα; His (N); made in house; host or cells: E. coli BL21(DE3), clarified lysate
T1 sequence (P03372 250-595): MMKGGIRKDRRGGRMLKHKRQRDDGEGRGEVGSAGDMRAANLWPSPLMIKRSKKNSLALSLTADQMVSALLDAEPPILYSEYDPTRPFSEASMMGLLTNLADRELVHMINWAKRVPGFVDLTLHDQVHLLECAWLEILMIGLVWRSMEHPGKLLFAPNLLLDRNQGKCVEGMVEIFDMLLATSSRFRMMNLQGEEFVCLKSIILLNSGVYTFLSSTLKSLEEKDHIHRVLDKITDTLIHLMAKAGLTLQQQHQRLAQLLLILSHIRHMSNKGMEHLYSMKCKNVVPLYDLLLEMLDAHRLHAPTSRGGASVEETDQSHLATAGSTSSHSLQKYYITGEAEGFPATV

human ERβ = target: T2, human ERβ (Homo sapiens, UniProt Q92731); test: Radioligand binding competition with [3H]-17β-estradiol, ERβ; settings: human ERβ ligand binding domain, E. coli lysate, read-out: ER-β IC50
T2 construct: M214-Q530 of human ERβ; Flag (C); made in house; host or cells: E. coli BL21(DE3), clarified lysate
T2 sequence (Q92731 214-530): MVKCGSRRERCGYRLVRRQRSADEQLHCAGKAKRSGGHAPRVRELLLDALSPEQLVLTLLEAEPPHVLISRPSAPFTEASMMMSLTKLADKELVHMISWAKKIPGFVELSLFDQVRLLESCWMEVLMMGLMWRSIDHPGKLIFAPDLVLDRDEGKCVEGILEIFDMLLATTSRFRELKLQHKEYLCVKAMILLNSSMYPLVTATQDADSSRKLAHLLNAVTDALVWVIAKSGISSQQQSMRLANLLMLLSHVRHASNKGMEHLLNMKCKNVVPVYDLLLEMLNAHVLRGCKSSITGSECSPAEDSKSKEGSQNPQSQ

Row | pIC50 (human ERα) | pIC50 (human ERβ) | melting point [°C] | Structure (SMILES)
1 | 5.30 |  |  | Oc1ccc2c(-c3ccccc3O)noc2c1 [Example 9, 3-(2-Hydroxyphenyl)-1,2-benzisoxazol-6-ol]
2 | 5.52 | 6.60 | 215 to 217 | Oc1ccc(O)c(-c2noc3cc(O)ccc23)c1 [Example 10, 2-(6-Hydroxy-1,2-benzisoxazol-3-yl)benzene-1,4-diol]
3 | 5.70 | 6.68 | 267 to 270 | Oc1ccc(-c2noc3c(Br)cc(O)cc23)cc1 [Example 13, 7-Bromo-3-(4-hydroxyphenyl)-1,2-benzisoxazol-5-ol]
4 | 7.42 | 7.70 |  | CCCc1cc(-c2noc3cc(O)ccc23)c(CC(C)C)cc1O [Example 4, 3-(4-Hydroxy-2-isobutyl-5-propylphenyl)-1,2-benzisoxazol-6-ol]
